Read-outs that look alike come from different tables or passages of the source.
Key:
rats = conditions: cited from earlier work
mice = conditions: cited from earlier work
rabbits = conditions: cited from earlier work
[1] = Roghani et al. 2012; cited from earlier work
[2] = test system: Albino Wistar rats injected with Ibotenic acid; assay: Open field test in ibotenic acid (I.C.V.) model; type: in vivo; conditions: IBO i.c.v., oral treatment 30 days, FIG. 2b
Description: Ibotenic acid (IBO) is a non-selective glutamate receptor […] which can be used as a powerful neurotoxin to produce anxiety, stress, depression and dementia. It is injected intra cerebro-ventricularly as a brain lesioning agent specially to destroy the neuronal cells in hippocampal and cortical region responsible for fear, anxiety and depression, as well as learning and memory. […] The NMDA subtype of glutamate receptor is an important mediator of synaptic plasticity and plays a central role in the neurobiological mechanisms of emotionality including fear, anxiety and depression, as well as learning and memory (Barkus et al., European Journal of Pharmacology, 2010; 626(1), 49-56).
Ibotenic acid is administered to Albino Wistar rats at the dose of 5 μg/μL/intracerebroventricularly using Hamilton syringe at the rate of 0.1 μL/min. The animals were then treated continuously for 30 days with Black cumin extracts (BCE) orally at various dosages (thymoquinone content) and evaluated for its anxiolytic properties using elevated plus maze and modified open field apparatus. The various black cumin extracts (BCE) dosages evaluated in the study are outlined in Table-3.
The open field test is conventionally designed to assess the state of anxiety, locomotor and exploratory activity. […] Results were statistically analysed by one-way ANOVA followed by Tukey's multiple comparison test.

U373-MG cell line = assay: SRB growth assay on U373 MG glial cell line; type: cell-based; conditions: Homo sapiens, read-out: GI 50 (concentration causing 50% inhibition of cell growth)
IMR-32 cell line = assay: SRB growth assay on IMR-32 neuronal cell line; type: cell-based; conditions: Homo sapiens, IMR-32, read-out: GI 50 (concentration causing 50% inhibition of cell growth)

CC1=CC(=O)C(C(C)C)=CC1=O [TQ, 2-isopropyl-5-methyl-1,4-benzoquinone]
LD50 (rats; intra-peritoneal injection): 57.5 mg/kg | LD50 (rats; oral ingestion): 794.3 mg/kg | LD50 (mice; intra-peritoneal injection): 104.7 mg/kg | LD50 (mice; oral ingestion): 870.9 mg/kg | LD50 (rabbits): 2400 mg/kg | Memory improvement [1]: memory improvement in a dose dependent manner

CC12CC3CC(C)(C1)CC(N)(C3)C2 [Memantine]
Rearing behaviour (rearing frequency), open field [2]: no significant difference between the BCE4 treated group, memantine group and the control group

COc1cccc2c1C(=O)c1c(O)c3c(c(O)c1C2=O)C[C@@](O)(C(=O)CO)C[C@@H]3O[C@H]1C[C@H](N)[C@H](O)[C@H](C)O1 [Adriamycin]
GI50 (U373-MG cell line): < 10 µg/mL | GI50 (IMR-32 cell line): < 10 µg/mL

Source: patent publication US11007243B2, “Enzyme-assisted supercritical extraction of nigella sativa seeds” (priority 2016, dated 2021)
